Source: US9707269B2, “Sugar compositions for treating hemophilia A and/or von Willebrand disease” (CSL Behring GmbH, priority 2012, dated 2017)
Entries after “also recorded” stand apart in the source; their conditions may differ.

What was measured:
[1] = target: T1, rhASGPR (Homo sapiens, UniProt P07306); assay: Solid-phase binding assay of multimeric VWF with rhASGPR; settings: VWF 100 to 3 μg/mL, 1 hour at +37 °C; FIG. 12
T1 construct: The extracellular domains of receptor proteins were acquired from R&D Systems (Wiesbaden, Germany); purchased R&D Systems (Wiesbaden, Germany)
T1 sequence (P07306 62-291 limits assumed): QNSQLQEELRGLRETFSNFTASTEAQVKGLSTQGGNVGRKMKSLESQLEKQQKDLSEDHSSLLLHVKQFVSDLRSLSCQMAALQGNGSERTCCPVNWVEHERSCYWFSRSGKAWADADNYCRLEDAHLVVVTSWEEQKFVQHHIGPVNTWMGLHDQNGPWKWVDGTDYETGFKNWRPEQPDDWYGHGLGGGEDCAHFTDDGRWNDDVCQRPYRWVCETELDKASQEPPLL
Description: In addition to SPR-based interaction analysis with monomeric VWF, the interaction of multimeric VWF (purified from human plasma) with rhASGPR was investigated by using solid-phase binding assay. In addition, asialo-VWF (plasma derived VWF after treatment with α(2-3,6,8)-neuraminidase) was used as control.
Lyophilized rhASGPR (R&D Systems, Wiesbaden, Germany) was reconstituted and diluted in 0.05 M carbonate-bicarbonate buffer at pH 9.6, adsorbed onto high-adsorption 96-microwell plates at RT overnight, and subsequently washed with washing buffer (50 mM Tris, 150 mM NaCl, 5 mM CaCl2 and 0.1% (w/v) Tween-20 at pH 7.4). Afterwards, the wells were incubated for 1 hour with blocking solution (50 mM Tris, 150 mM NaCl, 5 mM CaCl2 and 2.5% (w/v) BSA at pH 7.4) in order to block non-specific binding, and then washed with washing buffer again. […] After washing the wells, associated VWF was subsequently detected by a commercial polyclonal rabbit anti-human VWF antibody conjugated with HRP (DakoCytomation, Glostrup, Denmark) that had been previously diluted 1:16,000 in dilution buffer. […] The reaction was stopped with stopping solution POD (Siemens Healthcare Diagnostics, Marburg, Germany) and the substrate reaction was photometrically monitored by measuring the difference in wave lengths at 450 nm and 620 nm.

[2] = system: clearance receptor candidates; assay: Interaction of pd VWF multimers with clearance receptor candidates and its inhibition (Example 10); format: binding; settings: example without data; for inhibition of binding of pd VWF multimers to clearance receptor candidates: in the presence of ASF or monosaccharides
Description: According to Example 9, pd VWF multimers interact with clearance receptor candidates mentioned earlier. In addition, binding is inhibited in the presence of ASF or monosaccharides such as galactose, fucose and N-acetylgalactosamine.

[3] = target: T2, rhCLEC10A (Homo sapiens, UniProt Q8IUN9); assay: SPR binding to immobilized clearance receptor rhCLEC10A; settings: 25 °C, 5 mM CaCl2, pH 7.4, FIGS. 9 and 10
T2 construct: The extracellular domains of receptor proteins were acquired from R&D Systems (Wiesbaden, Germany); purchased R&D Systems (Wiesbaden, Germany)
T2 sequence (Q8IUN9 61-316 limits assumed): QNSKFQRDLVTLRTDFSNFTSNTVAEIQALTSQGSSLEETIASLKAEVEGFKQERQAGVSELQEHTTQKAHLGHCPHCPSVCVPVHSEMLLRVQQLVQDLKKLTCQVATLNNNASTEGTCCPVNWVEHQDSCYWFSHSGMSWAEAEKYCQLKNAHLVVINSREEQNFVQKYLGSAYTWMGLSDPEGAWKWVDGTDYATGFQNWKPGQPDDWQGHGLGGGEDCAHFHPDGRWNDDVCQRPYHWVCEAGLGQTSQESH
Description: (§1) SPR technology (Biacore T200, GE Healthcare Biosciences, Uppsala, Sweden) was applied to evaluate mechanisms of realtime biomolecular interactions between VWF, receptor-blocking agents and clearance receptor candidates. The interaction experiments were performed at a flow cell temperature of +25° C. by applying running buffer containing 10 mM HEPES, 150 mM NaCl, 5 mM CaCl2 and 0.05% Tween-20 at pH 7.4, which was also used as sample dilution buffer. Reagents and buffer stock solutions were purchased from GE Healthcare Biosciences (Uppsala, Sweden). The extracellular domains of receptor proteins were acquired from R&D Systems (Wiesbaden, Germany). The ligands were captured on Series S Sensor […] pretreated according to the manufacturer's instructions. The receptor proteins were covalently immobilized through free amine groups to the carboxymethylated dextran matrix by applying the amine coupling kit according to the manufacturer protocol. A blank flow cell without immobilized protein was included as a reference surface on the chip for bulk shift and nonspecific binding changes.
(§2) Increasing concentrations of both ASF and fetuin ranging from 10,240 to 10 nM were prepared as a 2 fold serial dilution series in running buffer and sequentially injected across the chip surface at 25 μL/min in order to characterize protein-ligand interaction. […]
(§3) Kinetic data were analyzed using Biacore T200 Evaluation Software Version 1.0 (GE Healthcare Biosciences, Uppsala, Sweden). An interaction of the analyte with the ligand was detected by an increase in accumulating mass and specific binding was identified by subtracting the binding response recorded from the control surface, followed by subtracting an average of the buffer blank injections. A report point was positioned 20 seconds after the end of sample injection and was evaluated as representative for a stable protein-ligand interaction, which was of interest. […] Furthermore, the response was calculated relative to the baseline in each case.

[4] = target: T3, rhSCARA5 (Homo sapiens, UniProt Q6ZMJ2); assay: SPR binding to immobilized clearance receptor rhSCARA5; settings: 25 °C, 5 mM CaCl2, pH 7.4, FIGS. 9 and 10
T3 construct: The extracellular domains of receptor proteins were acquired from R&D Systems (Wiesbaden, Germany); purchased R&D Systems (Wiesbaden, Germany)
T3 sequence (Q6ZMJ2 82-495 limits assumed): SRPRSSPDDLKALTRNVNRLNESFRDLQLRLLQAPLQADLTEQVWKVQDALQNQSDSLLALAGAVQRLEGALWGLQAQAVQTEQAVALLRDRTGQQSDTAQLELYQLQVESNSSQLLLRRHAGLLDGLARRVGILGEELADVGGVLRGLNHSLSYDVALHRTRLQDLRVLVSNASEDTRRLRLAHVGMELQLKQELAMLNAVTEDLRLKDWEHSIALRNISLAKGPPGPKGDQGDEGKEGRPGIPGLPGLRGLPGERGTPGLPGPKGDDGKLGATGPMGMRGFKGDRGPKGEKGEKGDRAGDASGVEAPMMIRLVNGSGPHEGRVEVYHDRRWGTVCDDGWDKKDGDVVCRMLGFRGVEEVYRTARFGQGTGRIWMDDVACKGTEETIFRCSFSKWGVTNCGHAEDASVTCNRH
Description: as §1, §2, §3

[5] = target: T4, rhCLEC4M (Homo sapiens, UniProt Q9H2X3); assay: SPR binding to immobilized clearance receptor rhCLEC4M; settings: 25 °C, 5 mM CaCl2, pH 7.4, FIGS. 9 and 10
T4 construct: The extracellular domains of receptor proteins were acquired from R&D Systems (Wiesbaden, Germany); purchased R&D Systems (Wiesbaden, Germany)
T4 sequence (Q9H2X3 71-399 limits assumed): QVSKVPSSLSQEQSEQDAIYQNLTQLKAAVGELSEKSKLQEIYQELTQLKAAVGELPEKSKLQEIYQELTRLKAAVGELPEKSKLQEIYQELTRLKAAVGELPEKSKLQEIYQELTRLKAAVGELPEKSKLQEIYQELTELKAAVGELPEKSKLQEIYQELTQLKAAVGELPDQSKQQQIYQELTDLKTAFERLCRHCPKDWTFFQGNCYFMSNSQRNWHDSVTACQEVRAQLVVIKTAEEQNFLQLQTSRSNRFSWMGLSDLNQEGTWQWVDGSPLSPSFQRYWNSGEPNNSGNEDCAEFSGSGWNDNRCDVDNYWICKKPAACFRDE
Description: as §1, §2, §3

[6] = target: T5, rhCOLEC12 (Homo sapiens, UniProt Q5KU26); assay: SPR binding to immobilized clearance receptor rhCOLEC12; settings: 25 °C, 5 mM CaCl2, pH 7.4, FIGS. 9 and 10
T5 construct: The extracellular domains of receptor proteins were acquired from R&D Systems (Wiesbaden, Germany); purchased R&D Systems (Wiesbaden, Germany)
T5 sequence (Q5KU26 59-742 limits assumed): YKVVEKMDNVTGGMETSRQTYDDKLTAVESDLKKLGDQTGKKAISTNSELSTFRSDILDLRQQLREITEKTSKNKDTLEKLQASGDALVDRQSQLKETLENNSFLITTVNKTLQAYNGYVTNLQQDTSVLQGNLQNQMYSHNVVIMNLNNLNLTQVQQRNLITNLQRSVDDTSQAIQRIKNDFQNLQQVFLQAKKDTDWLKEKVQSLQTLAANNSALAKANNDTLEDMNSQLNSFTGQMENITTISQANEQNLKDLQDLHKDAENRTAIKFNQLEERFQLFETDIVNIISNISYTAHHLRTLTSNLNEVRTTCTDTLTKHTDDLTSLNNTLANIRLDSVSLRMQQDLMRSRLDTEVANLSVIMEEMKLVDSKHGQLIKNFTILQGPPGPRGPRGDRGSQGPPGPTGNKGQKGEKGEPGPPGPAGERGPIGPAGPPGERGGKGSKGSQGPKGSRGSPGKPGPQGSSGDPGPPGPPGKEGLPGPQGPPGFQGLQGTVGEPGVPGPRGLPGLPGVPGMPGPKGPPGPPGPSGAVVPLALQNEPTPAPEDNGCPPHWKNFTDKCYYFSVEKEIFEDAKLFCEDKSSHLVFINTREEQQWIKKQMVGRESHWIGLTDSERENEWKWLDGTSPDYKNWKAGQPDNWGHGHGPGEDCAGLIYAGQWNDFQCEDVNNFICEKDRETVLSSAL
Description: as §1, §2, §3

[7] = target: T6, rmCLEC4F (Mus musculus, UniProt P70194); assay: SPR binding to immobilized clearance receptor rmCLEC4F; settings: 25 °C, 5 mM CaCl2, pH 7.4, FIGS. 9 and 10
T6 construct: The extracellular domains of receptor proteins were acquired from R&D Systems (Wiesbaden, Germany); purchased R&D Systems (Wiesbaden, Germany)
T6 sequence (P70194 70-548 limits assumed): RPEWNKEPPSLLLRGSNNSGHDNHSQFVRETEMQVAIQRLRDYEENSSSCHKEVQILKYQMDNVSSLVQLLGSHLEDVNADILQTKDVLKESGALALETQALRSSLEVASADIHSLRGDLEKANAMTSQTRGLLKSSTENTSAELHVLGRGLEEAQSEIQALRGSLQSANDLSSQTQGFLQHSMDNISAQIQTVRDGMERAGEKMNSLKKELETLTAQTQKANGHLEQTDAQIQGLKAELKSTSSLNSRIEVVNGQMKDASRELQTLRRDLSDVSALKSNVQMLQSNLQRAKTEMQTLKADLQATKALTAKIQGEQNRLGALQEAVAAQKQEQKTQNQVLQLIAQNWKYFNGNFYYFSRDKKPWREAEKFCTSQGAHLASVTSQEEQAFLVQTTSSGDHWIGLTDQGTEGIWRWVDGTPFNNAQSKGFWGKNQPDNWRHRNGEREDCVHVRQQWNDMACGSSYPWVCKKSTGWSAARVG
Description: as §1, §2, §3

[8] = target: T1, rhASGPR; assay: SPR binding to immobilized clearance receptor rhASGPR; settings: 25 °C, 5 mM CaCl2, pH 7.4, FIGS. 9 and 10
Description: SPR technology (Biacore T200, GE Healthcare Biosciences, Uppsala, Sweden) was applied to evaluate mechanisms of realtime biomolecular interactions between VWF, receptor-blocking agents and clearance receptor candidates. The interaction experiments were performed at a flow cell temperature of +25° C. by applying running buffer containing 10 mM HEPES, 150 mM NaCl, 5 mM CaCl2 and 0.05% Tween-20 at pH 7.4, which was also used as sample dilution buffer. Reagents and buffer stock solutions were purchased from GE Healthcare Biosciences (Uppsala, Sweden). The extracellular domains of receptor proteins were acquired from R&D Systems (Wiesbaden, Germany). […]
as §3

[9] = target: T1, rhASGPR; assay: SPR inhibition of ASF binding to rhASGPR by monosaccharides; settings: in the presence of the monosaccharide, FIG. 11
Description: as §1, §2
as §3, with “case. […]” for “case.”

[10] = system: clearance receptors; assay: Inhibition of pd VWF monomer interaction with clearance receptors by monosaccharides (Example 8); format: binding; settings: in the presence of monosaccharides; example without data
Description: According to example 7, the interaction of pd VWF monomers with clearance receptors mentioned earlier is inhibited in the in the presence of monosaccharides such as galactose, fucose and N-acetylgalactosamine.

| Compound | SPR binding to rhCLEC10A [3] | SPR binding to rhSCARA5 [4] | SPR binding to rhCLEC4M [5] | SPR binding to rhCOLEC12 [6] | SPR binding to rmCLEC4F [7] | inhibition of binding of pd VWF multimers to clearance receptor candidates [2] | inhibition of ASF binding to immobilized rhASGPR [9] | inhibition of interaction of pd VWF monomers with clearance receptors [10] | other results |
| --- | --- | --- | --- | --- | --- | --- | --- | --- | --- |
| asialo-VWF multimers: plasma derived VWF after treatment with α(2-3,6,8)-neuraminidase, used as control | – | – | – | – | – | – | – | – | interaction with rhASGPR, solid-phase binding assay [1]: interacted with rhASGPR |
| plasma derived VWF multimers: multimeric VWF purified from human plasma, native glycosylation structure without modifications | – | – | – | – | – | – | – | – | interaction with rhASGPR, solid-phase binding assay [1]: interacted with rhASGPR; interaction of pd VWF multimers with clearance receptor candidates ([2]; according to Example 9): interact |
| VWF: purified VWF monomers (pd VWF after reduction with dithiothreitol and carboxymethylation with iodoacetamide) | bind efficiently | bind efficiently | bind efficiently | bind efficiently | bind efficiently | – | – | – | SPR binding to rhASGPR [8]: bind efficiently |
| C[C@H](O)[C@@H](O)[C@@H](O)[C@H](O)C=O [Fuc, fucose] | – | – | – | – | – | inhibited | decreased binding; also recorded: inhibited binding | inhibited | – |
| CC(=O)N[C@H]1C(O)O[C@H](CO)[C@H](O)[C@@H]1O (stereo partly drawn) [GalNac, N-acetylgalactosamine] | – | – | – | – | – | inhibited | decreased binding; also recorded: inhibited binding | inhibited | – |
| asialofetuin: bovine ASF (fetuin after the removal of terminal sialic acid residues), ligand blocking galactose receptors such as ASGPR | bind efficiently | bind efficiently | bind efficiently | bind efficiently | bind efficiently | inhibited | – | – | – |
| O=C[C@H](O)[C@@H](O)[C@@H](O)[C@H](O)CO [Gal, galactose] | – | – | – | – | – | inhibited | decreased binding; also recorded: inhibited binding | inhibited | – |
| fetuin [reference compound] | almost not | almost not | almost not | almost not | almost not | – | – | – | SPR binding to rhASGPR [8]: almost not |
